Measurements reported in ChEMBL document CHEMBL1165884, “Microwave-assisted synthesis and in-vitro anti-tumor activity of 1,3,4-triaryl-5-N-arylpyrazole-carboxamides” (Eur J Med Chem, 2010).
≈ marks a conversion by molar mass, not a printed value.

Key:
HEp-2 = experiment: Cytotoxicity against human Hep2 cells after 48 hrs; conditions: HEp-2, 48 h
Caco-2 = experiment: Cytotoxicity against human Caco-2 cells after 48 hrs; conditions: Caco-2, 48 h

Row | SMILES | IC50 (HEp-2) | IC50 (Caco-2)
1 | Cc1ccc(NC(=O)c2c(-c3ccccc3)c(-c3ccccc3)nn2-c2ccccc2)cc1 | 1.21 µg/mL (≈ 2.82 µM) | 2.21 µg/mL (≈ 5.15 µM)
2 | Cc1ccc(NC(=O)c2c(-c3ccc(Cl)cc3)c(-c3ccccc3)nn2-c2ccccc2)cc1 | 0.81 µg/mL (≈ 1.75 µM) | 1.54 µg/mL (≈ 3.32 µM)
3 | O=C(c1c(-c2ccc(Cl)cc2)c(-c2ccccc2)nn1-c1ccccc1)n1c(=S)[nH]c2ccccc21 | 1.54 µg/mL (≈ 3.04 µM) | 3.29 µg/mL (≈ 6.49 µM)
4 | O=C(Nc1ccccc1)c1c(-c2ccccc2)c(-c2ccccc2)nn1-c1ccccc1 | 1.5 µg/mL (≈ 3.61 µM) | 1.68 µg/mL (≈ 4.04 µM)
5 | O=C(c1c(-c2ccccc2)c(-c2ccccc2)nn1-c1ccccc1)n1c(=S)[nH]c2ccccc21 | 7.18 µg/mL (≈ 15.2 µM) | 1.48 µg/mL (≈ 3.13 µM)
6 | O=C(Nc1ccccc1)c1c(-c2ccc(Cl)cc2)c(-c2ccccc2)nn1-c1ccccc1 | 0.74 µg/mL (≈ 1.64 µM) | 1.74 µg/mL (≈ 3.87 µM)
7 | Cc1ccc(NC(=O)c2c(-c3ccccc3)c(-c3ccc(Cl)cc3)nn2-c2ccccc2)cc1 | 1.21 µg/mL (≈ 2.61 µM) | 0.67 µg/mL (≈ 1.44 µM)
8 | COc1cccc2c1C(=O)c1c(O)c3c(c(O)c1C2=O)C[C@@](O)(C(=O)CO)C[C@@H]3O[C@H]1C[C@H](N)[C@H](O)[C@H](C)O1 [DOXORUBICIN] | 0.4 µg/mL (≈ 0.736 µM) | 1 µg/mL (≈ 1.84 µM)
